Data: US20150064697A1 (priority 2012, published 2015)

Experiments:
[1] = molecular target: DNA methyltransferase I (DNMT1) (Mus musculus, UniProt P13864); experiment: Western blot of DNMT1 protein level; assay type: cell-based; conditions: both p53-WT and p53-null cells, 48 hours
SCC-VII cells [2] = experiment: RT-PCR of IFNβ1, IRF7 and CXCL10 mRNA; conditions: 10 μM 48 hours
CT26 cells [3] = experiment: Cell viability assay (methylene blue), cytotoxicity of 5-aza-dC; assay type: cell-based, mouse; conditions: 5 days treatment
LLC cells [4] = experiment: Dot-blot hybridization for GSAT RNA; conditions: 10 μM 48 hours
SCC-VII cells [5] = experiment: Cell viability assay (methylene blue), cytotoxicity of 5-aza-dC; assay type: cell-based, mouse; conditions: 5 days treatment
SCC-VII cells [6] = experiment: Dot-blot hybridization for GSAT RNA; conditions: 10 μM 48 hours
[7] = tested on: primary mouse hepatocytes (quiescent); experiment: Viability of quiescent primary hepatocytes (methylene blue); assay type: cell-based; conditions: p53-wt and null hepatocytes, 5 days
CT26 cells [8] = experiment: Dot-blot hybridization for GSAT RNA; conditions: CT26, 10 μM 48 hours
LLC cells [9] = experiment: Cell viability assay (methylene blue), cytotoxicity of 5-aza-dC; assay type: cell-based, mouse; conditions: 5 days treatment
LLC cells [10] = experiment: RT-PCR of IFNβ1, IRF7 and CXCL10 mRNA; conditions: 10 μM 48 hours
[11] = tested on: caspases 3 and 7 in ifnar−/− MEFs; experiment: Caspase-3,7 activity assay (Ac-DEVD-AMC); conditions: 48 hours

Sequence of DNA methyltransferase I (DNMT1) (P13864 whole entry): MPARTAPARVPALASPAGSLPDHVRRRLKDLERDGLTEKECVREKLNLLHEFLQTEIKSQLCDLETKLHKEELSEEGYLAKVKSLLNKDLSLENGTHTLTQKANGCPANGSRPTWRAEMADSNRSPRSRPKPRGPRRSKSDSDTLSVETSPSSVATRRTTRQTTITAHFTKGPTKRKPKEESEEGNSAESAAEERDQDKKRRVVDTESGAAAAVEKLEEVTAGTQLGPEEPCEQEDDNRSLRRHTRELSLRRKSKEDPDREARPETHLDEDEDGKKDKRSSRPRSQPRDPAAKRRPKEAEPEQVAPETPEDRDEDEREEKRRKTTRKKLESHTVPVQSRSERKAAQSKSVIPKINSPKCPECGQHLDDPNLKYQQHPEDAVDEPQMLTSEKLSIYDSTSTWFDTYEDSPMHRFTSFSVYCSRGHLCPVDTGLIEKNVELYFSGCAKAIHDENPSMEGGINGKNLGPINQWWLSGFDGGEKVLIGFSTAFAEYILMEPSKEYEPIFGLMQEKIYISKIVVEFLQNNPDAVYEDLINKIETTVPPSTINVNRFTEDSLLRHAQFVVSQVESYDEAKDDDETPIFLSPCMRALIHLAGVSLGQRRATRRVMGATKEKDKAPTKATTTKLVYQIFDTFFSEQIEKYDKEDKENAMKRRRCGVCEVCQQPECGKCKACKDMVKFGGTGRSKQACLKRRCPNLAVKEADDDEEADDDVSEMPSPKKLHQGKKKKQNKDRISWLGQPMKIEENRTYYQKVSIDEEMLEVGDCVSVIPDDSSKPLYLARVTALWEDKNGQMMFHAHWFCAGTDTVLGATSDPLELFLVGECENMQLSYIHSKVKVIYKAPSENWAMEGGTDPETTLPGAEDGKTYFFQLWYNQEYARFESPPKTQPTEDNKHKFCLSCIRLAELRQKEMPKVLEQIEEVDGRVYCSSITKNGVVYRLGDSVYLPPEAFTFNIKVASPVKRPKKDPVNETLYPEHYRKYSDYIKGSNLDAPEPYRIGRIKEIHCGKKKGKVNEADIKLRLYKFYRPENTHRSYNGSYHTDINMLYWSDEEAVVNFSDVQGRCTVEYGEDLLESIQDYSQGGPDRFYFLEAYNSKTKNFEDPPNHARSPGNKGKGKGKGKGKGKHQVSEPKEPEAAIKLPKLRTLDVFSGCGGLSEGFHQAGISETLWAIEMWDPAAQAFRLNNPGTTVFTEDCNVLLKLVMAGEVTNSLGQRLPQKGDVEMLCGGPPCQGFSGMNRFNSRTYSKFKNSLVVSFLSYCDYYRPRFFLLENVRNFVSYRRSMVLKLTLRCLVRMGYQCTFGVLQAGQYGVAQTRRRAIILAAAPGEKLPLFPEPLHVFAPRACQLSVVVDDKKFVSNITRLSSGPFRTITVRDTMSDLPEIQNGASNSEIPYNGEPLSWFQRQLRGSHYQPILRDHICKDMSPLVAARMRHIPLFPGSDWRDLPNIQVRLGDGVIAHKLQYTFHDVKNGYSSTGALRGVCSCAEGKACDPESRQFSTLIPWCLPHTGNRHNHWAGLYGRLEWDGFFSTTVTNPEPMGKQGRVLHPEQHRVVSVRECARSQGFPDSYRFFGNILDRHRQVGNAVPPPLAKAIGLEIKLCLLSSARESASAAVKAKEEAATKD

Nc1ncn([C@H]2C[C@H](O)[C@@H](CO)O2)c(=O)n1 [5-aza-dC, 5-aza-2′-deoxycytidine]
free DNMT1 protein after treatment [1]: complete depletion
mRNAs encoding IFNβ1, IRF7 and CXCL10 (SCC-VII cells [2]): strong upregulation
LD50 (CT26 cells [3]): 2 µM
expression of GSAT RNA upon treatment (LLC cells [4]): undetectable
LD50 (SCC-VII cells [5]): 0.125 µM
expression of GSAT RNA upon treatment (SCC-VII cells [6]): strong
sensitivity of quiescent cells to cultivation with 5-aza-dC [7]: resistant
expression of GSAT RNA upon treatment (CT26 cells [8]): intermediate
LD50 (LLC cells [9]): 14 µM
mRNAs encoding IFNβ1, IRF7 and CXCL10 (LLC cells [10]): none of these IFN response-associated transcripts was detected
caspase activation [11]: No signs of caspase activation
